Measurements from patent publication US6525026B2, “Carbamyloxy compounds which inhibit leukocyte adhesion mediated by VLA-4” (Elan Pharmaceuticals, Inc., priority 1997, dated 2003).
Numbered stars: 1 amine (or outer) side, 2 acyl side, 3 side chain; on linkers, the order of the positions; unused ones are H or OH. Side chains are listed from the residue outwards. Peptide text beside a SMILES is read from it. * marks the point of attachment. Tos = Cc1ccc(S(=O)(=O)*)cc1; CO = O=C([*:1])[*:2]; OiPr = CC(C)O*

system: rats or guinea pigs; experiment: Experimental Autoimmune (or Allergic) Encephalomyelitis (EAE) model, motor impairment; type: in vivo; settings: treatment from Day 8, 10 mg/kg to 200 mg/kg bid for five days, SC, PO or IP

Row | Compound | active in EAE in vivo assay (delayed the onset of symptoms, e.g., clinical scores no greater than 2 or slowed body weight loss as compared to the control)
1 | Cc1ccc(S(=O)(=O)N2CSC(C)(C)[C@H]2C(=O)N[C@@H](Cc2ccc(OC(=O)N3CCN(C)CC3)cc2)C(=O)OC(C)(C)C)cc1 [Example 16, N-(Toluene-4-sulfonyl)-L-(5,5-dimethyl)thiaprolyl-L-4-(4-methylpiperazin-1-ylcarbonyloxy)phenylalanine tert-Butyl Ester] | active
2 | Cc1ccc(S(=O)(=O)N2CCC[C@H]2C(=O)N[C@@H](Cc2ccc(OC(=O)N3CCN(C)CC3)cc2)C(=O)OC(C)(C)C)cc1 [Example 4, N-(Toluene-4-sulfonyl)-L-prolyl-L-4-(4-methylpiperazin-1-ylcarbonyloxy)phenylalanine tert-Butyl Ester] | active
3 | CN(C)C(=O)Oc1ccc(C[C@H](NC(=O)[C@H]2N(S(=O)(=O)c3ccc(F)cc3)CSC2(C)C)C(=O)OC(C)(C)C)cc1 [Example 95, N-(4-Fluorobenzenesulfonyl)-L-(5,5-dimethyl)thiaprolyl-L-4-(N,N-dimethylcarbamyloxy)phenylalanine tert-Butyl Ester] | active
4 | Cc1ccc(S(=O)(=O)N2CCS(=O)(=O)C[C@@H]2C(=O)N[C@@H](Cc2ccc(OC(=O)N(C)C)cc2)C(=O)OC(C)(C)C)cc1 [Example 51, N-(Toluene-4-sulfonyl)-L-(1,1-dioxothiamorpholin-3-carbonyl)-L-4-(N,N-dimethylcarbamyloxy)phenylalanine tert-Butyl Ester] | active
5 | Cc1ccc(S(=O)(=O)N2CCC[C@H]2C(=O)N[C@@H](Cc2ccc(OC(=O)N(C)C)cc2)C(=O)OC(C)C)cc1 [Example 101, N-(Toluene-4-sulfonyl)-L-prolyl-L-4-(N,N-dimethylcarbamyloxy)-L-phenylalanine Isopropyl Ester] (Tos-Pro-Tyr([CO-NMe2])-OiPr) | active
6 | Cc1ccc(S(=O)(=O)N2CCS(=O)(=O)C[C@@H]2C(=O)N[C@@H](Cc2ccc(OC(=O)N(C)C)cc2)C(=O)OC(C)C)cc1 [Example 73, N-(Toluene-4-sulfonyl)-L-(1,1-dioxothiamorpholin-3-carbonyl)-L-4-(N,N-dimethylcarbamyloxy)phenylalanine Isopropyl Ester] | active
7 | Cc1ccc(S(=O)(=O)N2CSC(C)(C)[C@H]2C(=O)N[C@@H](Cc2ccc(OC(=O)N(C)C)cc2)C(=O)OC(C)(C)C)cc1 [Example 12, N-(Toluene-4-sulfonyl)-L-(5,5-dimethyl)thiaprolyl-L-4-(N,N-dimethylcarbamyloxy)phenylalanine tert-Butyl Ester] | active
8 | Cc1ccc(S(=O)(=O)N2CCC[C@H]2C(=O)N[C@@H](Cc2ccc(OC(=O)N(C)C)cc2)C(=O)O)cc1 [Example 9, N-(Toluene-4-sulfonyl)-L-prolyl-L-4-(N,N-dimethylcarbamyloxy)phenylalanine] (Tos-Pro-Tyr([CO-NMe2])-OH) | active
9 | Cc1ccc(S(=O)(=O)N2CCC[C@H]2C(=O)N[C@@H](Cc2ccc(OC(=O)N3CCSCC3)cc2)C(=O)OC(C)(C)C)cc1 [Example 82, N-(Toluene-4-sulfonyl)-L-prolyl-L-4-(thiomorpholin-4-ylcarbonyloxy)phenylalanine tert-Butyl Ester] | active
10 | CN(C)C(=O)Oc1ccc(C[C@H](NC(=O)[C@@H]2CCCN2S(=O)(=O)c2cnn(C)c2)C(=O)OC(C)(C)C)cc1 [Example 117, N-(Methyl-pyrazole-4-sulfonyl)-L-prolyl-L-(4-N,N-dimethylcarbamyloxy)phenylalanine tert-Butyl Ester] | active
11 | CC(C)OC(=O)[C@H](Cc1ccc(OC(=O)N(C)C)cc1)NC(=O)[C@@H]1CCCN1S(=O)(=O)c1cnn(C)c1 [Example 137, N-(Methyl-pyrazole-4-sulfonyl)-L-prolyl-L-(4-N,N-dimethylcarbamyloxy)-phenylalanine Isopropyl Ester] | active
12 | Cc1ccc(S(=O)(=O)N2CSC(C)(C)[C@H]2C(=O)N[C@@H](Cc2ccc(OC(=O)N(C)C)cc2)C(=O)OC(C)C)cc1 [Example 11, N-(Toluene-4-sulfonyl)-L-(5,5-dimethyl)thiaprolyl-L-4-(N,N-dimethylcarbamyloxy)phenylalanine Isopropyl Ester] | active
13 | Cc1ccc(S(=O)(=O)N2CS(=O)(=O)C(C)(C)[C@H]2C(=O)N[C@@H](Cc2ccc(OC(=O)N(C)C)cc2)C(=O)OC(C)C)cc1 [Example 75, N-(Toluene-4-sulfonyl)-L-(1,1-dioxo-5,5-dimethyl)thiaprolyl-L-4-(N,N-dimethylcarbamyloxy)phenylalanine Isopropyl Ester] | active

system: not given; experiment: not given; settings: not given

Row | melting point [°C] | Compound
14 | 158 to 160 | Cc1ccc(S(=O)(=O)N2CCC[C@H]2C(=O)N[C@@H](Cc2ccc(OC(=O)N3CCN(CCO)CC3)cc2)C(=O)OC(C)(C)C)cc1
